Source: patent publication EP4781984A1 (Beyang Therapeutics Co., Ltd., priority 2023, dated 2025)
“Also recorded” adds a separate entry of the source.

Experiments:
[1] = Thermodynamic solubility test; type: physicochemical; details: buffer solution, aqueous buffer, thermodynamic from solid; positive compound
In short: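 Samples sonicated 10 min, shaken 8 h at room temperature, re-sonicated and centrifuged at 13000 rpm for 15 min. Supernatant recentrifuged and analysed by LC-MS, with concentrations quantified against a 3–5 point calibration curve.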

[2] = background statement on the known drug; cited from earlier work
[3] = Plasma and ocular tissue distribution after single ocular administration in Dutch Belted rabbits (Example 6); type: in vivo; details: single eye drop 1 mg/mL (0.05 mg/eye, 50 µL/eye), 0.5, 4 or 8 hours
Description: Detection of Plasma and Ocular Tissue Distribution of Compounds after Single Ocular Administration in Dutch Belted Rabbits
Age-related macular degeneration and diabetic retinopathy are associated with neovascularization in the posterior segment of the eye. A major problem with topical eye drops for treating posterior segment disorders is the inefficient delivery of the agent to the posterior segment sites due to the corneal and conjunctival barriers. Therefore, it is important to measure the distribution of compounds from ocular formulations in several major ocular tissues. […] This experiment used Dutch Belted rabbits. […]
Male Dutch Belted rabbits used in this experiment were purchased from Pizhou Dongfang Breeding Co., Ltd., with animal weights ranging from 1.5 to 2.5 kg. […] All prepared dosing formulations were freshly prepared on the day of administration, sampled, and the actual concentration of the dosing formulation was determined.
On the day of the experiment, animals were administered 1 mg/mL (0.05 mg/eye, 50 µL/eye). […] The concentrations of each analyte in rabbit ocular tissues and plasma obtained in this experiment were determined using an LC-MS/MS analytical method. […] BLOQ (Below the Limit of Quantification) is the lowest analyte concentration that can be quantified with acceptable precision and accuracy. […]

## CNC(=O)c1ccccc1Sc1ccc2c(/C=C/c3ccccn3)n[nH]c2c1 [Axitinib]
[1]
  solubility thermodynamic at 8 h: < 2 µg/mL
[2]
  solubility: < 2 µg/mL
[3]
  drug concentration in retina: below the lower limit of quantification; also recorded: below BLOQ
